Measured values: patent publication US10300067B2, “Tetrahydropyridopyrimidine compound or salt thereof” (TAIHO PHARMACEUTICAL CO., LTD., priority 2014, dated 2019)
Like-named read-outs stand apart in the source and are kept apart here.

Tests used:
[1] = target: human androgen receptor (Homo sapiens (Human), UniProt P10275); assay: Antagonist activity for AR (pMMTV-luc reporter transcription activity in transfected COS-7 cells, DHT 1 nmol/L); type: cell-based; conditions: 50% transcription activity inhibition concentration; COS-7 cells with pMMTV-luc and pEX-hAR, DHT 1 nmol/L, 24 hours
Chain of human androgen receptor (P10275 whole entry): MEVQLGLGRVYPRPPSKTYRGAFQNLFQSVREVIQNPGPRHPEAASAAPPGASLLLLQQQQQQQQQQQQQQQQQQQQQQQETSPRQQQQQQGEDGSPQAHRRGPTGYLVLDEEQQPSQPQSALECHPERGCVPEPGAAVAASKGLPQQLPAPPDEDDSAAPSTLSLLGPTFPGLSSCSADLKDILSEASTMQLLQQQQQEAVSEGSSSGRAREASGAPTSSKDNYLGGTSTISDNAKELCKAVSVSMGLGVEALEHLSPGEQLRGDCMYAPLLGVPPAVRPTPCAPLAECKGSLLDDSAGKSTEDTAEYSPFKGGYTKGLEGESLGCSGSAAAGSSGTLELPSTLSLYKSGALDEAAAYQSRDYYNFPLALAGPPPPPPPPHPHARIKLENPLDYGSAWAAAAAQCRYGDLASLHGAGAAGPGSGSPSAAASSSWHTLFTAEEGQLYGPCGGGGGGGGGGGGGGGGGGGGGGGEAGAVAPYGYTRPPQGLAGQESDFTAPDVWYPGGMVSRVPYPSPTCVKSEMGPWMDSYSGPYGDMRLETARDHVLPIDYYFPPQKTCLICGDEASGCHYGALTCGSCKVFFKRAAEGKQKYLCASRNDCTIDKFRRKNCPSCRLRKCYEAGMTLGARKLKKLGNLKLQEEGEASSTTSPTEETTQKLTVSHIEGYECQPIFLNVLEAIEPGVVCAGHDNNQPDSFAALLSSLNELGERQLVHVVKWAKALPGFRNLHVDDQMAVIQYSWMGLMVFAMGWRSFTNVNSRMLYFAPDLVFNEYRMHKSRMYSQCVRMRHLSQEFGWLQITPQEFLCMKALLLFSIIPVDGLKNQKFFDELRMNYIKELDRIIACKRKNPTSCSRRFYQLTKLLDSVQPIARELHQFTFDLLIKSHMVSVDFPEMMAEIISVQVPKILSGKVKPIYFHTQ
In short: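 COS-7 cells co-transfected with pMMTV-luc reporter and CMV-driven human AR expression vector, cultured overnight in phenol red-free RPMI1640 with 10% charcoal-treated FBS. Antagonism measured against 1 nmol/L DHT by luciferase transcription activity.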

[2] = system: Human prostate cancer cells LNCaP; assay: Androgen-dependent inhibitory activity on proliferation of prostate cancer cells; type: cell-based; conditions: read-out: GI50 value
Protocol: Human prostate cancer cells LNCaP (Non-Patent Literature 5) having […] androgen receptor gene were seeded in a clear bottom 96 well microplate (BD) at 4.0×10^3/well with phenol red free RPMI1640 containing 5% DCC-FBS (hereinbelow, the medium is referred to as an evaluation medium), and then cultured overnight. The culture was added with the evaluation medium containing DHT (final concentration of DHT: 10 nmol/L) or the evaluation medium containing the compound of Examples or the compound of Comparative Examples (final concentration of the compound of Examples or the compound of Comparative Examples: 10, 30, 100, 300, 1000, 3000, 10000, or 30000 nmol/L), followed by culture for 72 hours. Then, the number of viable cells was counted. The number of viable cells was measured by using Cell Counting Kit-8 (DOJINDO LABORATORIES).

[3] = system: AR positive human prostate cancer cells VCaP; assay: Agonist activity for AR (cell proliferation rate of VCaP cells); type: cell-based; conditions: 72 hours, 2 to 10000 nmol/L, more than 10% at any concentration = agonist activity for AR
In short: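 VCaP cells seeded at 1.5×10^4/well in phenol-red-free RPMI1640 with 5% DCC-FBS, then exposed 72 h to compound at 2–10000 nmol/L (9 concentrations). Viable cells counted by CellTiter-Glo; proliferation rate (%) relative to medium-only control, agonist activity called when >10% at any concentration.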

[4] = target: androgen receptor (Homo sapiens (Human), UniProt P10275, T878A); assay: Activity of reducing expression level of androgen receptor (Western blotting of LNCaP cell lysate); type: cell-based; conditions: 48 hours
Chain of androgen receptor (P10275 whole entry T878A): as the sequence (P10275 whole entry) above, with T878A counted along it
In short: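 LNCaP prostate cancer cells (AR T878A) in phenol red-free RPMI1640 with 5% FBS treated with compound at final 10000 nmol/L for 48 h. Cell lysates analysed by Western blot with anti-AR antibody; band quantified by chemiluminescence.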

[5] = system: LNCaP-Xeno-IL-6 cells; assay: Anti-tumor activity in in vivo model of castration resistant prostate cancer; conditions: castrated male nude mice, oral, every day for 2 weeks
Protocol: From the AR positive human prostate cancer cells LNCaP, castration resistant prostate cancer cells, LNCaP-Xeno-IL-6 cells, were established based on the scientific paper (Clin Cancer Res, 2001 7:2941-8) (in the paper, the cells have been reported as LNCaP-IL-6+ cells) and used for the in vivo test. The LNCaP-Xeno-IL-6 cells were implanted subcutaneously in male nude mice, and the castration treatment was performed when the tumor volume reached about 200 mm^3. After the castration, the vehicle only (0.5% HPMC) or the compound of Examples suspended in the vehicle was orally administered to the mice every day for 2 weeks. The compound of Examples was administered such that there was no difference in an exposure amount between the compounds. After the administration for 2 weeks, the tumor volume of each mouse was recorded and the average tumor volume of the group administered with the evaluation compound relative to the average tumor volume of the group administered only with the vehicle, that is, T/C (%), was calculated based on the following formula. T/C (%)=(Average tumor volume of evaluation compound group)/(Average tumor volume of vehicle administration group)

[6] = 50% proliferation inhibition concentration, DHT 10 nmol/L, 72 hours

Compound | IC50 [1] [nM] | GI50 [2, 6] [nM] | Cell proliferation rate (%) [3] [%] | 10 μM AR expression reducing activity [4] | T/C (%) ([5]; daily dose 100 mg/kg/day) | T/C (%) ([5]; daily dose 30 mg/kg/day) | GI50 ([2]; 72 h) [nM]
CC(C)(O)c1ccc(Nc2ncnc3c2CCN(c2ccc(C#N)c(Cl)c2)C3)nn1 [Example 6, 2-chloro-4-(4-((6-(2-hydroxypropan-2-yl)pyridazin-3-yl)amino)-5,6-dihydropyrido[3,4-d]pyrimidin-7 (8H)-yl)benzonitrile] | 70 | 400 | −0.7 | reduced (When the AR expression reducing activity is 50% or more, it is described as “reduced”) | 29 |  | 
CC(C)(O)c1ccc(Nc2ncnc3c2CCN(c2ccc(C#N)c(C(F)(F)F)c2)C3)nc1 [Example 7, 4-(4-((5-(2-hydroxypropan-2-yl)pyridin-2-yl)amino)-5,6-dihydropyrido[3,4-d]pyrimidin-7(8H)-yl)-2-(trifluoromethyl)benzonitrile] | 160 | 500 | 4.9 | reduced (When the AR expression reducing activity is 50% or more, it is described as “reduced”) |  | 49 | 
CC(C)(COc1ccc(Nc2ncnc3c2CCN(c2ccc(C#N)c(C(F)(F)F)c2)C3)cn1)n1cnnn1 [Example 16, 4-(4-((6-(2-methyl-2-(1H-tetrazol-1-yl)propoxy)pyridin-3-yl)amino)-5,6-dihydropyrido[3,4-d]pyrimidin-7(8H)-yl)-2-(trifluoromethyl)benzonitrile] | 210 | 700 | −1.5 | reduced (When the AR expression reducing activity is 50% or more, it is described as “reduced”) |  |  | 
N#Cc1ccc(N2CCc3c(ncnc3Nc3ccc(C(=O)NCc4nc(C(F)(F)F)cs4)cn3)C2)cc1C(F)(F)F [Example 36, 6-((7-(4-cyano-3-(trifluoromethyl)phenyl)-5,6,7,8-tetrahydropyrido[3,4-d]pyrimidin-4-yl)amino)-N-((4-(trifluoromethyl)thiazol-2-yl)methyl)nicotinamide] | 170 | 300 | −1.9 | reduced (When the AR expression reducing activity is 50% or more, it is described as “reduced”) |  |  | 
CC(C)(O)C1CCN(C(=O)c2cnc(Nc3ncnc4c3CCN(c3ccc(C#N)c(C(F)(F)F)c3)C4)o2)CC1 [Example 42, 4-(4-((5-(4-(2-hydroxypropan-2-yl)piperidin-1-carbonyl)oxazol-2-yl)amino)-5,6-dihydropyrido[3,4-d]pyrimidin-7(8H)-yl)-2-(trifluoromethyl)benzonitrile] | 340 |  | −17.2 | reduced (When the AR expression reducing activity is 50% or more, it is described as “reduced”) |  |  | 1100
CS(=O)(=O)N1CCN(CCCOc2ccc(Nc3ncnc4c3CCN(c3ccc(C#N)c(C(F)(F)F)c3)C4)cc2)CC1 [Example 18, 4-(4-((4-(3-(4-(methylsulfonyl)piperazin-1-yl)propoxy)phenyl)amino)-5,6-dihydropyrido[3,4-d]pyrimidin-7(8H)-yl)-2-(trifluoromethyl)benzonitrile] | 360 | 1900 | −4.6 | reduced (When the AR expression reducing activity is 50% or more, it is described as “reduced”) |  |  | 
CC(C)(O)CNC(=O)c1ccc(Nc2ncnc3c2CCN(c2ccc(C#N)c(C(F)(F)F)c2)C3)nn1 [Example 32, 6-((7-(4-cyano-3-(trifluoromethyl)phenyl)-5,6,7,8-tetrahydropyrido[3,4-d]pyrimidin-4-yl)amino)-N-(2-hydroxy-2-methylpropyl)pyridazine-3-carboxamide] | 60 | 3100 | −2.2 | reduced (When the AR expression reducing activity is 50% or more, it is described as “reduced”) |  |  | 
CC(C)(COc1ccc(Nc2ncnc3c2CCN(c2ccc(C#N)c(C(F)(F)F)c2)C3)nc1)n1cnnn1 [Example 17, 4-(4-((5-(2-methyl-2-(1H-tetrazol-1-yl)propoxy)pyridin-2-yl)amino)-5,6-dihydropyrido[3,4-d]pyrimidin-7(8H)-yl)-2-(trifluoromethyl)benzonitrile] | 170 | 700 | 0.6 | reduced (When the AR expression reducing activity is 50% or more, it is described as “reduced”) |  |  | 
CC(C)Oc1ccc(Nc2ncnc3c2CCN(c2ccc(C#N)c(C(F)(F)F)c2)C3)cn1 [Example 13, 4-(4-((6-isopropoxypyridin-3-yl)amino)-5,6-dihydropyrido[3,4-d]pyrimidin-7(8H)-yl)-2-(trifluoromethyl)benzonitrile] | 110 | 600 | 2.8 | reduced (When the AR expression reducing activity is 50% or more, it is described as “reduced”) |  |  | 
N#Cc1ccc(N2CCc3c(ncnc3Nc3ncc(S(=O)(=O)N4CCCOCC4)s3)C2)cc1C(F)(F)F [Example 20, 4-(4-((5-((1,4-oxazepan-4-yl)sulfonyl)thiazol-2-yl)amino)-5,6-dihydropyrido[3,4-d]pyrimidin-7 (8H)-yl)-2-(trifluoromethyl)benzonitrile] | 100 | 2500 | 0.0 | reduced (When the AR expression reducing activity is 50% or more, it is described as “reduced”) |  |  | 
C[C@@H](NC(=O)c1ccc(Nc2ncnc3c2CCN(c2ccc(C#N)c(C(F)(F)F)c2)C3)nc1)c1nnc(C(F)(F)F)o1 [Example 40, (R)-6-((7-(4-cyano-3-(trifluoromethyl)phenyl)-5,6,7,8-tetrahydropyrido[3,4-d]pyrimidin-4-yl)amino)-N-(1-(5-(trifluoromethyl)-1,3,4-oxadiazol-2-yl)ethyl)nicotinamide] | 260 | 400 | 0.0 | reduced (When the AR expression reducing activity is 50% or more, it is described as “reduced”) |  |  | 
CC(C)(O)c1ccc(Nc2ncnc3c2CCN(c2ccc(C#N)c(C(F)(F)F)c2)C3)nn1 [Example 10, 4-(4-((6-(2-hydroxypropan-2-yl)pyridazin-3-yl)amino)-5,6-dihydropyrido[3,4-d]pyrimidin-7 (8H)-yl)-2-(trifluoromethyl)benzonitrile] | 90 | 800 | 2.8 | reduced (When the AR expression reducing activity is 50% or more, it is described as “reduced”) |  |  | 
CC(C)(O)CNC(=O)c1cnc(Nc2ncnc3c2CCN(c2ccc(C#N)c(C(F)(F)F)c2)C3)nc1 [Example 34, 2-((7-(4-cyano-3-(trifluoromethyl)phenyl)-5,6,7,8-tetrahydropyrido[3,4-d]pyrimidin-4-yl)amino)-N-(2-hydroxy-2-methylpropyl)pyrimidine-5-carboxamide] | 700 | 3800 | 6.4 | reduced (When the AR expression reducing activity is 50% or more, it is described as “reduced”) |  |  | 
CC(C)Oc1ccc(Nc2ncnc3c2CCN(c2ccc(C#N)c(C(F)(F)F)c2)C3)cc1 [Example 2, 4-(4-((4-isopropoxyphenyl)amino)-5,6-dihydropyrido[3,4-d]pyrimidin-7(8H)-yl)-2-(trifluoromethyl)benzonitrile] | 370 | 1000 | 3.8 | reduced (When the AR expression reducing activity is 50% or more, it is described as “reduced”) |  |  | 
